In patent US9079913B2, “Spiro-oxindole MDM2 antagonists” (The Regents of the University of Michigan, priority 2009, dated 2015):
Like-named read-outs stand apart in the source and are kept apart here.

Experiments:
[1] = tested on: Isogenic HCT-116 colon cancer cell lines; test: cells; assay type: cell-based;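 also: cells grown in 96-well plates in McCoy's 5A medium with 10% FBS, exposed to compound for 4 days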
Description: Cells were seeded in 96-well flat bottom cell culture plates at a density of 2−3×10^3 cells/well with compounds and incubated for 4 days.

[2] = tested on: cancer cell lines with wild-type p53 / mutated or deleted p53 (ATCC); test: Cell growth assay (WST-8), other cancer cell lines; assay type: cell-based
[3] = target: recombinant human His-tagged MDM2 protein (residues 1-118) (Homo sapiens (Human), UniProt Q00987); test: Fluorescence-polarization MDM2 binding assay;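 also: fluorescence polarization read after three hours of incubation in potassium phosphate buffer containing bovine gamma globulin and Triton X-100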
Chain of recombinant human His-tagged MDM2 protein (residues 1-118) (Q00987 1-118): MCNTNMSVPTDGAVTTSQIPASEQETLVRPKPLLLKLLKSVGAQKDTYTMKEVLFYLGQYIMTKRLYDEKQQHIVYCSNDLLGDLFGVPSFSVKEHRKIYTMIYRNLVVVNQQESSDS

[4] = Homo sapiens, HCT-116, read-out: Inhibition of cell growth IC50, HCT116 p53 KO, Table 19B, HCT116 p53 KO
[5] = Homo sapiens, HCT-116, read-out: Inhibition of cell growth IC50, HCT116 p53 WT, Table 19B, HCT116 p53 WT
[6] = Homo sapiens, LNCaP, Table 19B, LNCaP cells, read-out: Inhibition of cell growth IC50, LNCaP
[7] = Homo sapiens, PC-3, Table 19B, PC3 cells, read-out: Inhibition of cell growth IC50, PC3
[8] = Table 19B, read-out: Binding affinities to MDM2 protein as determined by FP based assay IC50
[9] = Homo sapiens, HCT-116, read-out: HCT-116 (p53-/-) IC50, Table 19A, HCT-116 p53-/-, cell growth
[10] = Homo sapiens, HCT-116, read-out: HCT-116 (p53 wild-type) IC50, Table 19A, HCT-116 p53 wild-type, cell growth
[11] = Homo sapiens, SJSA-1, Table 19A, SJSA-1 cells, p53 wild-type, cell growth, read-out: SJSA-1 (p53 wild-type) IC50
[12] = Table 19A, FP binding assay, read-out: MDM2 IC50
[13] = Homo sapiens, LNCaP, Table 19A, LNCAP cells, p53 wild-type, cell growth, read-out: LNCAP (p53 wild-type) IC50
[14] = Homo sapiens, PC-3, Table 19A, PC-3 cells, deleted p53, cell growth, read-out: PC-3 (deleted p53) IC50

SMILES | IC50 [3, 8] | IC50 [1, 9] | IC50 [1, 10] | IC50 [2, 11] | IC50 [3, 12] | IC50 [2, 13] | IC50 [2, 14] | also measured
O=C(NCC[C@H](O)CO)[C@@H]1N[C@H](CCCc2cccs2)[C@]2(C(=O)Nc3cc(Cl)c(F)cc32)[C@H]1c1cccc(Cl)c1 [MI-710] | > 1 µM | – | – | – | – | – | – | IC50 [1, 4]: 12.4 ± 1.2 µM; IC50 [1, 5]: 1.3 ± 0.3 µM; IC50 [2, 6]: 1.2 ± 0.2 µM; IC50 [2, 7]: 12.4 ± 1.9 µM
CC(C)(C)C[C@H]1N[C@@H](C(=O)NC2CCN(CCO)CC2)[C@H](c2cccc(Cl)c2F)[C@@]12C(=O)Nc1cc(Cl)ccc12 [MI-784] | – | 10.3 µM | 0.4 µM | 0.7 µM | < 0.5 µM | – | – | –
CC(C)(C)C[C@H]1N[C@@H](C(=O)NCC[C@H](O)CO)[C@H](Cc2ccccc2)[C@@]12C(=O)Nc1cc(Cl)c(F)cc12 [MI-319-23] | – | – | – | – | – | – | – | IC50 ([1]; Homo sapiens, HCT-116, read-out: Cell growth inhibition using WST assay, HCT116 p53KO IC50, Table 19C, HCT116 p53KO): > 10 µM; IC50 ([1]; Homo sapiens, HCT-116, read-out: Cell growth inhibition using WST assay, HCT116 p53WT IC50, Table 19C, HCT116 p53WT): > 10 µM; IC50 ([2]; Homo sapiens, LNCaP, Table 19C, LNCaP cells, read-out: Cell growth inhibition using WST assay, LNCaP IC50): > 10 µM; IC50 ([2]; Homo sapiens, PC-3, Table 19C, PC3 cells, read-out: Cell growth inhibition using WST assay, PC3 IC50): > 10 µM; IC50 ([3]; Table 19C, read-out: Bidning affinities to MDM2 as determined using FP assay IC50): > 10 µM
CC(C)(C)C[C@H]1N[C@@H](C(=O)NC2CN(C(=O)NC3CCCCC3)C2)[C@H](c2cccc(Cl)c2F)[C@@]12C(=O)Nc1cc(Cl)ccc12 [MI-913] | – | 8.8 µM | < 5 µM | < 5 µM | < 3 µM | < 5 µM | 4.9 µM | –
CC(C)(C)C[C@H]1N[C@@H](C(=O)NC2CCC(OC(=O)[C@H](Cc3ccccc3)NC(=O)OC(C)(C)C)CC2)[C@H](c2cccc(Cl)c2F)[C@@]12C(=O)Nc1cc(Cl)ccc12 (stereo partly drawn) [MI-908] | – | > 30 µM | 5.3 µM | 22.5 µM | > 10 µM | 4.3 µM | ~30 µM | –
CC(C)CC(C)(C)C[C@H]1N(C)[C@@H](C(=O)NCC[C@H](O)CO)[C@H](c2cccc(Cl)c2F)[C@@]12C(=O)Nc1cc(F)c(F)cc12 [MI-734] | > 5 µM | – | – | – | – | – | – | IC50 [1, 4]: 8.2 ± 3.5 µM; IC50 [1, 5]: 5.5 ± 2.1 µM; IC50 [2, 6]: 3.7 ± 1.1 µM; IC50 [2, 7]: 7.4 ± 1.8 µM
O=C(NCC[C@H](O)CO)[C@@H]1N[C@H](CCc2ccco2)[C@]2(C(=O)Nc3cc(Cl)c(F)cc32)[C@H]1c1cccc(Cl)c1 [MI-715C] | < 5 µM | – | – | – | – | – | – | IC50 ([1]; read-out: Inhibition of cell growth IC50, HCT116 p53 KO, Table 19B, HCT116 p53 KO): > 10 µM; IC50 ([1]; read-out: Inhibition of cell growth IC50, HCT116 p53 WT, Table 19B, HCT116 p53 WT): 2.9 ± 0.6 µM; IC50 ([2]; Table 19B, LNCaP cells, read-out: Inhibition of cell growth IC50, LNCaP): 2.2 ± 1.2 µM; IC50 ([2]; Table 19B, PC3 cells, read-out: Inhibition of cell growth IC50, PC3): > 10 µM
O=C(NCC[C@H](O)CO)[C@@H]1N[C@H](CC2CC2)[C@]2(C(=O)Nc3cc(Cl)c(F)cc32)[C@H]1c1cccc(Cl)c1 [MI-706] | < 10 µM | – | – | – | – | – | – | IC50 [1, 4]: 1.3 ± 0.2 µM; IC50 [1, 5]: 0.6 ± 0.1 µM; IC50 [2, 6]: 0.3 µM; IC50 [2, 7]: 4.6 ± 2.9 µM
CN1CCN(C(=O)[C@@H]2N[C@H](CC(C)(C)C)[C@]3(C(=O)Nc4cc(Cl)c(F)cc43)[C@H]2c2cccc(Cl)c2)CC1 [MI-740] | – | 5.4 ± 1.9 µM | 2.8 ± 0.1 µM | – | < 5 µM | 2 ± 0.3 µM | 4.8 ± 0.8 µM | –
CC(C)(C)C[C@H]1N[C@@H](C(=O)NC2CN(CCO)C2)[C@H](c2cccc(Cl)c2F)[C@@]12C(=O)Nc1cc(Cl)ccc12 [MI-912] | – | > 10 µM | < 5 µM | < 5 µM | < 3 µM | < 5 µM | > 5 µM | –
CC(C)[C@H](N)C(=O)OC1CCC(NC(=O)[C@@H]2N[C@H](CC(C)(C)C)[C@]3(C(=O)Nc4cc(Cl)ccc43)[C@H]2c2cccc(Cl)c2F)CC1 (stereo partly drawn) [MI-902] | – | 5.9 µM | < 3 µM | < 3 µM | < 3 µM | < 3 µM | 4 µM | –
CC(O)C(O)CCNC(=O)[C@@H]1N[C@H](CC(C)(C)C)[C@]2(C(=O)Nc3cc(Cl)c(F)cc32)[C@H]1c1cccc(Cl)c1 (stereo partly drawn) [MI-519-30] | – | 19.6 ± 5.2 µM | 1.3 ± 0.3 µM | – | < 2 µM | 1.1 µM | 19.1 ± 2.4 µM | –
CC(=O)N1CCC(NC(=O)[C@@H]2N[C@H](CC(C)(C)C)[C@]3(C(=O)Nc4cc(Cl)ccc43)[C@H]2c2cccc(Cl)c2F)CC1 [MI-783] | – | 18.5 µM | 0.9 µM | 1.1 µM | < 0.5 µM | – | – | –
CC(C)(C)C[C@H]1N[C@@H](C(=O)NCCN2CCOCC2)[C@H](c2cccc(Cl)c2F)[C@@]12C(=O)Nc1cc(F)c(F)cc12 [MI-721] | < 3 µM | – | – | – | – | – | – | IC50 [1, 4]: 18.4 ± 5.4 µM; IC50 [1, 5]: 1.5 ± 0.3 µM; IC50 [2, 6]: 1.4 µM; IC50 [2, 7]: 15.2 ± 1.4 µM
